{"source": "patent US20140100165A1", "about": "“PREVENTION OF KIDNEY INJURY OR DISEASE” (University of Florida Research Foundation, priority 2012, published 2014)", "key": {"[1]": {"test_system": "Acute Kidney Injury (AKI) in patients undergoing cardiac surgery on cardiopulmonary bypass", "assay_type": "in vivo", "conditions": "for kidney function as measured by estimated GFR: seven day post-operative period", "description": "The CS007 trial was designed to study both short and long term efficacy signals (FIG. 5).\nPrimary Aims • Safety: Safety and tolerability vs. placebo • Efficacy: Max post-operative change in absolute values of SCr compared to baseline within the first 7 days after surgery or until discharge from hospital, whichever comes first vs. placebo.\nSecondary aims • Composite: • Assess the proportion of patients reaching the composite endpoint of death, need for RRT or a 25% reduction in renal function over a 90 day post-operative period vs. placebo. • AKIN: Assess post-operative incidence of AKI within 48 hours post-surgery • RIFLE: Assess post-operative incidence of AKI within first 7 days post-surgery. • SCr: Changes between surgery and postoperative day 7. • GFR: Changes at day 90 compared to baseline. • eGFR: Changes between surgery and postoperative day 7\nEach dosage was provided over a period of 10 minutes. As used throughout this disclosure and unless specified otherwise, “μg/kg” refers to […] AP214 per kg bodyweight of the patient being treated.\nMoreover, in the same double-blind study described in this Example, patients undergoing cardiac surgery on cardiopulmonary bypass (CPB) were randomized to placebo (PBO; n=26), AP214 given at either 600 μg/kg (n=25), or 800 μg/kg (n=26), divided into 3 bolus infusions at the predetermined intervals as described above. AKI was determined according to AKIN and RIFLE scores."}, "[2]": {"assay": "Example 3: evaluation of rate of infusion of AP214 (adverse events, tolerability)", "assay_type": "in vivo, human", "experimental": "To establish a suitable rate of infusion of AP214 a set of patient trials were performed.\nAP214 isotonic solution single ascending doses (25, 50 and 100 μg/kg) for intravenous infusion administered over 10 minutes, or placebo (saline infusion).\nAP214 isotonic solution single doses (100 μg/kg over 1 minute; 100 μg/kg over 30 seconds; 200 μg/kg over 30 seconds) for intravenous infusion."}, "[3]": {"test_system": "complete warm ischemia in the kidney", "conditions": "pigs; 200 μg/kg, 10 ml i.v. bolus during 1 minute, seven doses; cited from earlier work"}, "[4]": {"test_system": "Acute Kidney Injury (AKI) in patients undergoing cardiac surgery", "assay": "Example 1: prevention of AKI by different dosage regimes of AP214 in patients undergoing cardiac surgery", "assay_type": "in vivo, human", "experimental": "Each of 12 patients undergoing cardiac surgery (the AP214 group) was dosed with 600 μg/kg AP214: 200 μg/kg at skin incision, 200 μg/kg at cross clamp release, and 200 μg/kg 6-hour after cross clamp release. Each dosage was provided over a period of 10 minutes. The placebo group included 13 patients undergoing cardiac surgery without AP214 infusion.\nObjectives • trial objective was to assess the effect of AP214 on • 1) changes in serum creatinine, cystatin-C and carbamade, • 2) on eGFR and • 3) on the development of post-surgical acute kidney injury (AKI) • AKI also assessed (post-hoc analysis) by AKIN and RIFLE\nThree different definitions of AKI were tested: • 1) 3 patients in the AP214 group developed AKI, in contrast to 7 patients in the placebo group who developed AKI. AKI is defined as in the CS005 protocol: • An absolute increase in serum creatinine of more than or equal to 26.4 μmol/l (0.3 mg/dl) or • A percentage increase in serum creatinine of more than or equal to 50% (1.5-fold from baseline) from Day 0-14 and/or • Urine output less than 0.5 mL/kg per hour for more than 6 hours. • 2) AKI according to the AKIN score as presented in FIG. 3a, and • 3) AKI according to the RIFLE score as presented in FIG. 3b."}, "[5]": {"conditions": "600 μg/kg bodyweight (3×200 μg/kg) i.v. over 10 minutes each, vs placebo"}, "[6]": {"conditions": "600 μg/kg bodyweight, vs placebo"}}, "note": "Like-named read-outs stand apart in the source and are kept apart here.", "data": [{"smiles": "CSCC[C@H](NC(=O)[C@H](CO)NC(=O)[C@H](Cc1ccc(O)cc1)NC(=O)[C@H](CO)NC(=O)[C@H](CCCCN)NC(=O)[C@H](CCCCN)NC(=O)[C@H](CCCCN)NC(=O)[C@H](CCCCN)NC(=O)[C@H](CCCCN)NC(=O)[C@H](CCCCN)NC(C)=O)C(=O)N[C@@H](CCC(=O)O)C(=O)N[C@@H](Cc1c[nH]cn1)C(=O)N[C@@H](Cc1ccccc1)C(=O)N[C@@H](CCCNC(=N)N)C(=O)N[C@@H](Cc1c[nH]c2ccccc12)C(=O)NCC(=O)N[C@@H](CCCCN)C(=O)N1CCC[C@H]1C(=O)N[C@H](C(N)=O)C(C)C", "note": "[AP214, Acetyl-Lysyl-L-lysyl-L-lysyl-L-lysyl-L-lysyl-L-lysyl-L-seryl-L-tyrosyl-L-seryl-L-methionyl-Lglutamyl-L-histidyl-L-phenylalanyl-L-arginyl-L-tryptophanyl-glycyl-L-lysyl-L-prolyl-L-valine amide]", "values": [{"measurement": "population distribution of extreme serum creatinine values (highest quartile)", "setting": "[1]; 600 μg/kg", "value": "showed a reduction in serum creatinine values at the highest quartile"}, {"measurement": "kidney function as measured by estimated GFR", "setting": "[1]; 600 μg/kg", "value": "increased kidney function"}, {"measurement": "population distribution of extreme serum creatinine values (highest quartile)", "setting": "[1]; 800 μg/kg", "value": "showed a reduction in serum creatinine values at the highest quartile"}, {"measurement": "degree of acute kidney injury compared to placebo", "setting": "[1]; 800 μg/kg, Day 0-7", "value": "displayed lesser degrees of acute kidney injury"}, {"measurement": "incidence of AKI compared with PBO, by surgery type", "setting": "[1]; 800 μg/kg, combined CABG and valve surgery, multiple valve surgery, chronic kidney disease and CABG (or valve surgery)", "value": "numerically lower incidence of AKI"}, {"measurement": "kidney function as measured by estimated GFR", "setting": "[1]; 800 μg/kg", "value": "increased kidney function"}, {"measurement": "adverse events", "setting": "[2]; 100 μg/kg over 10 minutes i.v. (slower infusion rate)", "value": "did not show these adverse effects"}, {"measurement": "adverse events versus 100 μg/kg over 30 sec and 1 minute", "setting": "[2]; 200 μg/kg over 30 seconds i.v.", "value": "more adverse events"}, {"measurement": "subjects with erythema", "setting": "[2]; Group 2 (n=6), short infusion times", "value": 6, "unit": "subjects"}, {"measurement": "adverse events", "setting": "[2]; Group 2 (n=6): 100 μg/kg over 1 minute, 100 μg/kg over 30 seconds, 200 μg/kg over 30 seconds, i.v.", "value": "A large number of adverse events were reported"}, {"measurement": "renoprotective effect", "setting": "[3]", "value": "provides a renoprotective effect"}, {"measurement": "prevention of AKI as compared to placebo", "setting": "[4]; 150 μg/kg bodyweight (3×50 μg/kg), same dosing scheme", "value": "showed no prevention of AKI"}, {"measurement": "patients who developed AKI (AKI as defined in the CS005 protocol)", "setting": "[4]; 600 μg/kg (3×200 μg/kg), AP214 group of 12 patients, 7 of 13 in placebo group", "value": 3, "unit": "patients"}, {"measurement": "development of AKI according to the RIFLE and AKIN scores", "setting": "[4]; 600 μg/kg bodyweight (3×200 μg/kg)", "value": "demonstrated prevention in the development of AKI"}, {"measurement": "decrease in eGFR", "setting": "[4]; [5]", "value": "prevented a decrease in eGFR"}, {"measurement": "increase in serum creatinine", "setting": "[4]; [5]", "value": "prevented"}, {"measurement": "increase in carbamide", "setting": "[4]; [6]", "value": "prevented"}, {"measurement": "increase in cystatin C", "setting": "[4]; [6]", "value": "prevented an increase in cystatin C"}]}]}
